The subject of data set [1] is E. faecails. The data set can be described thus: Minimal inhibitory concentration, microbroth dilution. Format: cell-based. As to conditions: Enterococcus faecalis. The method in brief: (§1)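 Susceptibility testing used the CLSI dilution standard, with bacteria at ~10^5 cfu/mL exposed to a two-fold compound series beginning at 200 μM final. The endpoint is the lowest concentration showing no growth after overnight incubation (37 °C, aerobic).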
On the technique in general: In broth dilution the organism is exposed to a series of concentrations in liquid medium.

Data set [2] relates to MRSA NRS70. The description is as above. As to conditions: Staphylococcus aureus. The class given is cell-based. The method, boiled down:
as §1

Data set [3] deals with S. aureus ATCC 29213. Described as above. The class given is cell-based. As to conditions: Staphylococcus aureus. The method in brief:
as §1

In data set [4] the test system is S. aureus USA 300. Described as above. The class given is cell-based. The note with it: Staphylococcus aureus. The method in brief: as §1
A short description of data set [5]: Plasma protein binding, rapid equilibrium dialysis. The class given is in vitro ADME, human. The note with it: 10 μM. The method in brief:
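Compound spiked at 10 μM (0.1% DMSO) into human plasma, dialysed against DPBS pH 7.4 across 8 K MWCO RED membrane for 4 h at 37 °C with shaking. Both chambers quantified by LC-MS against warfarin internal standard; % free = buffer/plasma concentration ×100, % bound = 100 − % free.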

Data set [6] in a line: Plasma protein binding, rapid equilibrium dialysis. Format: in vitro ADME, mouse. Background: In equilibrium dialysis free small molecules cross a membrane that holds back macromolecules.
Data set [7] in a line: Plasma stability assay. Format: in vitro ADME, human. The method, boiled down: (§2)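 Compounds at 10 μM final in human or mouse plasma, incubated at 37 °C and sampled at 0, 3, 24 and 48 h in triplicate. Reactions quenched with cold acetonitrile containing warfarin internal standard; parent measured by LC-MS. Half-life from least-squares first-order fit.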
A short description of data set [8]: Plasma stability assay. Format: in vitro ADME, mouse. The method, boiled down:
as §2

Where [9] appears, read: MIC, read-out: Minimal Inhibitory Concentrations (μM) E. faecails.
Setting [10] is: MIC, read-out: Minimal Inhibitory Concentrations (μM) MRSA NRS70.
The mark [11] stands for this setting: ATCC29213, MIC, read-out: Minimal Inhibitory Concentrations (μM) S. aureus ATCC 29213.
Setting [12] is: USA300, MIC, read-out: Minimal Inhibitory Concentrations (μM) S. aureus USA 300.

Values after ≈ are worked out from the molar mass of the structure shown. Where two headings read alike, the source gives them in different places. Numbered stars: 1 amine (or outer) side, 2 acyl side, 3 side chain; on linkers, the order of the positions; unused ones are H or OH. Bridge positions count the residues as written; N and C are the ends. Square brackets hold non-standard residues; d marks the D form. Peptide text beside a SMILES is read from it. * marks the point of attachment. Morpholine(3S-CO) = O=C(O)[C@@H]1COCCN1; Phe(3-Me) = Cc1cccc(C[C@H](N)C(=O)O)c1; Pro(4R-Me) = C[C@H]1CN[C@H](C(=O)O)C1; Hyp = O=C(O)[C@@H]1C[C@@H](O)CN1; NH(4-Et-phenyl) = CCc1ccc(N*)cc1; NH(4-Me-phenyl) = Cc1ccc(N*)cc1; aThr = C[C@H](O)[C@H](N)C(=O)O; Pip = O=C(O)[C@@H]1CCCCN1; CO = O=C([*:1])[*:2]

As to `Cc1cccc(C[C@H](NC(=O)Nc2ccc3c(c2)OCO3)C(=O)N[C@H]2COC(=O)[C@@H]3C[C@@H](C)CN3C(=O)[C@H](C)NC(=O)[C@@H]3CCCCN3C(=O)[C@@H]3CCCN3C2=O)c1` [Compound 23, (S)-2-(3-(BENZO[D][1,3]DIOXOL-5-YL)UREIDO)-N-((2R,6S,8AS,14AS,20S,23AS)-2,6-DIMETHYL-5,8,14,19,23-PENTAOXOOCTADECAHYDRO-1H,5H,14H,19H-PYRIDO[2,1-I]DIPYRROLO[2,1-C:2′,1′-L][1]OXA[4,7,10,13]TETRAAZACYCLOHEXADECIN-20-YL)-3-(M-TOLYL)PROPANAMIDE], the MIC in data set [1] (setting [9]) was 0.625 µM (≈ 0.501 µg/mL); in data set [2] (setting [10]), 0.625 µM (≈ 0.501 µg/mL); in data set [3] (setting [11]) it was 1.25 µM (≈ 1 µg/mL); in data set [4] (setting [12]) it was 1.25 µM (≈ 1 µg/mL). In addition, the Human in data set [5] (human, 4 h, pH 7.4) was 97.1 ± 0.2%; in data set [7] (human, 10 μM), over 50 h. Moreover, the Mouse in data set [6] (mouse, 4 h, 10 μM, pH 7.4) stood at 96.9 ± 0.1%; in data set [8] (mouse, 10 μM), 27.31 h.

`CCc1ccc(NC(=O)N[C@@H](Cc2cccc(C)c2)C(=O)N[C@@H]2C(=O)N3C[C@H](O)C[C@H]3C(=O)N3CCOC[C@H]3C(=O)N[C@@H](C)C(=O)N3C[C@H](C)C[C@H]3C(=O)O[C@H]2C)cc1` [Compound 24, (S)-2-(3-(4-ETHYLPHENYL)UREIDO)-N-((6AS,8R,12S,13S,15AS,17R,21S,23AS)-8-HYDROXY-13,17,21-TRIMETHYL-6,11,15,20,23-PENTAOXOOCTADECAHYDRO-6H,11H,15H-[1,4]OXAZINO[3,4-I]DIPYRROLO[2,1-C:2′,1′-L][1]OXA[4,7,10,13]TETRAAZACYCLOHEXADECIN-12-YL)-3-(M-TOLYL)PROPANAMIDE] ({NH(4-Et-phenyl)-CO}-[Phe(3-Me)][aThr][Hyp][Morpholine(3S-CO)]A[Pro(4R-Me)]; ester 2-C): the MIC in data set [1] (setting [9]) was determined as 0.156 µM (≈ 0.128 µg/mL); in data set [2] (setting [10]) it was 0.156 µM (≈ 0.128 µg/mL); in data set [3] (setting [11]), 0.313 µM (≈ 0.256 µg/mL); in data set [4] (setting [12]) it was 0.313 µM (≈ 0.256 µg/mL). In addition, the Human came out at 97.7 ± 0.2% in data set [5] (human, 4 h, pH 7.4) and 90.86 h in data set [7] (human, 10 μM). Moreover, the Mouse in data set [6] (mouse, 4 h, 10 μM, pH 7.4) is 98.2 ± 0.1%; in data set [8] (mouse, 10 μM), over 50 h.

For `CCc1ccc(NC(=O)N[C@@H](Cc2cccc(C)c2)C(=O)N[C@@H]2C(=O)N3C[C@H](O)C[C@H]3C(=O)N3CCCC[C@H]3C(=O)N[C@@H](C)C(=O)N3C[C@H](C)C[C@H]3C(=O)O[C@H]2C)cc1` [Compound 25, (S)-2-(3-(4-ETHYLPHENYL)UREIDO)-N-((2R,6S,8AS,14AS,16R,20S,21S,23AS)-16-HYDROXY-2,6,21-TRIMETHYL-5,8,14,19,23-PENTAOXOOCTADECAHYDRO-1H,5H,14H,19H-PYRIDO[2,1-I]DIPYRROLO[2,1-C:2′,1′-L][1]OXA[4,7,10,13]TETRAAZACYCLOHEXADECIN-20-YL)-3-(M-TOLYL)PROPANAMIDE] ({NH(4-Et-phenyl)-CO}-[Phe(3-Me)][aThr][Hyp][Pip]A[Pro(4R-Me)]; ester 2-C), the MIC came out at 0.156 µM (≈ 0.127 µg/mL) in data set [1] (setting [9]), 0.156 µM (≈ 0.127 µg/mL) in data set [2] (setting [10]), 0.156 µM (≈ 0.127 µg/mL) in data set [3] (setting [11]) and 0.313 µM (≈ 0.255 µg/mL) in data set [4] (setting [12]). The Human is 99.2 ± 0.3% in data set [5] (human, 4 h, pH 7.4) and over 50 h in data set [7] (human, 10 μM). The Mouse in data set [6] (mouse, 4 h, 10 μM, pH 7.4) was 99.5 ± 0.11%; in data set [8] (mouse, 10 μM) it was over 50 h.

With `Cc1ccc(NC(=O)N[C@@H](Cc2cccc(C)c2)C(=O)N[C@@H]2C(=O)N3C[C@H](O)C[C@H]3C(=O)N3CCCC[C@H]3C(=O)N[C@@H](C)C(=O)N3C[C@H](C)C[C@H]3C(=O)O[C@H]2C)cc1` [Compound 26, (S)—N-((2R,6S,8AS,14AS,16R,20S,21S,23AS)-16-HYDROXY-2,6,21-TRIMETHYL-5,8,14,19,23-PENTAOXOOCTADECAHYDRO-1H,5H,14H,19H-PYRIDO[2,1-I]DIPYRROLO[2,1-C:2′,1′-L][1]OXA[4,7,10,13]TETRAAZACYCLOHEXADECIN-20-YL)-3-(M-TOLYL)-2-(3-(P-TOLYL)UREIDO)PROPANAMIDE] ({NH(4-Me-phenyl)-CO}-[Phe(3-Me)][aThr][Hyp][Pip]A[Pro(4R-Me)]; ester 2-C), the MIC came to 5 µM (≈ 4.01 µg/mL) in data set [1] (read-out: Minimal Inhibitory Concentrations (μM) E. faecails, MIC); 0.313 µM (≈ 0.251 µg/mL) in data set [2] (read-out: Minimal Inhibitory Concentrations (μM) MRSA NRS70, MIC); 0.313 µM (≈ 0.251 µg/mL) in data set [3] (ATCC29213, read-out: Minimal Inhibitory Concentrations (μM) S. aureus ATCC 29213, MIC); 2.5 µM (≈ 2 µg/mL) in data set [4] (USA300, read-out: Minimal Inhibitory Concentrations (μM) S. aureus USA 300, MIC). For the same compound, the Human is 98.8 ± 0.1% in data set [5] (plasma binding, % Bound, human plasma) and over 50 h in data set [7] (plasma stability half-life, human plasma, 37° C.). The Mouse in data set [6] (plasma binding, % Bound, mouse plasma) is 99.1 ± 0.15%; in data set [8] (plasma stability half-life, mouse plasma, 37° C.), over 50 h.
